Measurements reported in patent US20080200454A1, “CARBON-LINKED TETRAHYDRO-PYRAZOLO-PYRIDINE MODULATORS OF CATHEPSIN S” (priority 2007, published 2008).

molecular target: Recombinant human cathepsin S (CatS) (Homo sapiens, UniProt P25774); test: Recombinant human cathepsin S (CatS) inhibition assay, fluorogenic substrate Z-Valine-Valine-Arginine-AMC; details: not given;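 note: Baculovirus-expressed CatS in pH 5.0 sodium acetate buffer with DTT and NaCl, fluorescence read each minute over 20 min, inhibition derived from rate slope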
Sequence (P25774 115-331): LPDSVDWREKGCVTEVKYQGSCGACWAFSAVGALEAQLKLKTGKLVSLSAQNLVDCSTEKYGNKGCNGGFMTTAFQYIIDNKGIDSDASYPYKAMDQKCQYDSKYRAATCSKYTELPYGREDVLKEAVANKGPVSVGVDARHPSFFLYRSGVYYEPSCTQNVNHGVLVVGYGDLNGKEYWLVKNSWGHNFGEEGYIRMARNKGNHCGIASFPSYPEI

| Structure (SMILES) | IC50 [µM] |
| --- | --- |
| CS(=O)(=O)N1CCc2c(c(-c3ccc(Cl)c(CCCCO)c3)nn2CCCN2CCOCC2)C1 [Example 300, 4-{2-Chloro-5-[5-(methylsulfonyl)-1-(3-morpholin-4-ylpropyl)-4,5,6,7-tetrahydro-1H-pyrazolo[4,3-c]pyridin-3-yl]phenyl}butan-1-ol] | 9.2 |
| CS(=O)(=O)N1CCc2c(c(-c3ccc(Cl)c(C#Cc4ccc(CNCc5ccc(Cl)cc5)cc4)c3)nn2CCCN2CCC(F)CC2)C1 [Example 358, 1-{4-[(2-Chloro-5-{1-[3-(4-fluoropiperidin-1-yl)propyl]-5-(methylsulfonyl)-4,5,6,7-tetrahydro-1H-pyrazolo[4,3-c]pyridin-3-yl}phenyl)ethynyl]phenyl}-N-[(4-chlorophenyl)methyl]methanamine] | 0.1 |
| NC(=O)N1CCc2c(c(-c3ccc(Cl)c(C#Cc4ccc(CNCc5ccc(Cl)cc5)cc4)c3)nn2CCCN2CCSCC2)C1 [Example 160, 3-(4-Chloro-3-{[4-({[(4-chlorophenyl)methyl]amino}methyl)phenyl]ethynyl}phenyl)-1-(3-thiomorpholin-4-ylpropyl)-1,4,6,7-tetrahydro-5H-pyrazolo[4,3-c]pyridine-5-carboxamide] | 0.06 |
| CC(C)(C)OC(=O)N1CCc2ccc(C#Cc3cc(-c4nn(CC(O)CN5CCCCC5)c5c4CN(S(C)(=O)=O)CC5)ccc3Cl)cc2C1 (centres unmarked) [Example 371, 1,1-Dimethylethyl 7-({2-chloro-5-[1-(2-hydroxy-3-piperidin-1-ylpropyl)-5-(methylsulfonyl)-4,5,6,7-tetrahydro-1H-pyrazolo[4,3-c]pyridin-3-yl]phenyl}ethynyl)-3,4-dihydroisoquinoline-2(1H)-carboxylate] | 0.38 |
| CS(=O)(=O)N1CCc2c(c(-c3ccc(Cl)c(CCCCNC4CCCC4)c3)nn2CCCN2CCC(N3CCCC3=O)CC2)C1 [Example 115, 1-[1-(3-{3-[4-Chloro-3-(4-cyclopentylamino-butyl)-phenyl]-5-methanesulfonyl-4,5,6,7-tetrahydro-pyrazolo[4,3-c]pyridin-1-yl}-propyl)-piperidin-4-yl]-pyrrolidin-2-one] | 1.69 |
| NC(=O)C(=O)N1CCc2c(c(-c3ccc(Cl)c(C#Cc4ccc(CN[C@@H]5CCCc6ccccc65)cc4)c3)nn2CCCN2CCOCC2)C1 [Example 496, 2-[3-{4-Chloro-3-[(4-{[(1R)-1,2,3,4-tetrahydronaphthalen-1-ylamino]methyl}phenyl)ethynyl]phenyl}-1-(3-morpholin-4-ylpropyl)-1,4,6,7-tetrahydro-5H-pyrazolo[4,3-c]pyridin-5-yl]-2-oxoacetamide] | 0.07 |
| CC(=O)NC1CCN(CCCn2nc(-c3ccc(Cl)c(C#Cc4ccc(CNCc5ccc(Cl)cc5)cc4)c3)c3c2CCN(S(C)(=O)=O)C3)CC1 [Example 346, N-(1-{3-[3-(4-Chloro-3-{[4-({[(4-chlorophenyl)methyl]amino}methyl)phenyl]ethynyl}phenyl)-5-(methylsulfonyl)-4,5,6,7-tetrahydro-1H-pyrazolo[4,3-c]pyridin-1-yl]propyl}piperidin-4-yl)acetamide] | 0.02 |
| NC(=O)C(=O)N1CCc2c(c(-c3ccc(Cl)c(C#Cc4ccc(CNCc5ccc(Cl)cc5)cc4)c3)nn2C[C@@H](O)CN2CCOCC2)C1 [Example 253, (S)-2-[3-(4-Chloro-3-{4-[(4-chloro-benzylamino)-methyl]-phenylethynyl}-phenyl)-1-(2-hydroxy-3-morpholin-4-yl-propyl)-1,4,6,7-tetrahydro-pyrazolo[4,3-c]pyridin-5-yl]-2-oxo-acetamide] | 0.06 |
| CS(=O)(=O)N1CCc2c(c(-c3ccc(Cl)c(CCCNS(=O)(=O)c4ccccc4[N+](=O)[O-])c3)nn2CCCN2CCC(N3CCCC3=O)CC2)C1 [Example 89, N-{3-[2-Chloro-5-(5-methanesulfonyl-1-{3-[4-(2-oxo-pyrrolidin-1-yl)-piperidin-1-yl]-propyl}-4,5,6,7-tetrahydro-1H-pyrazolo[4,3-c]pyridin-3-yl)-phenyl]-propyl}-2-nitro-benzenesulfonamide] | 0.29 |

same assay, conditions: CatS IC50

| Structure (SMILES) | IC50 [µM] |
| --- | --- |
| CS(=O)(=O)N1CCc2c(c(-c3ccc(Cl)c(C#Cc4ccc(CN5Cc6ccccc6C5)cc4)c3)nn2CCCN2CCOCC2)C1 [Example 443, 3-(4-Chloro-3-{[4-(1,3-dihydro-2H-isoindol-2-ylmethyl)phenyl]ethynyl}phenyl)-5-(methylsulfonyl)-1-(3-morpholin-4-ylpropyl)-4,5,6,7-tetrahydro-1H-pyrazolo[4,3-c]pyridine] | 0.69 |
| CS(=O)(=O)N1CCc2c(c(-c3ccc(Cl)c(C#Cc4ccc(CNCc5cccnc5)cc4)c3)nn2CCCN2CCOCC2)C1 [Example 404, 1-[4-({2-Chloro-5-[5-(methylsulfonyl)-1-(3-morpholin-4-ylpropyl)-4,5,6,7-tetrahydro-1H-pyrazolo[4,3-c]pyridin-3-yl]phenyl}ethynyl)phenyl]-N-(pyridin-3-ylmethyl)methanamine] | 0.37 |
| CS(=O)(=O)N1CCc2c(c(-c3ccc(Cl)c(CCc4cccc(CNCC5CCOCC5)c4)c3)nn2CCCN2CCOCC2)C1 [Example 186, 1-[3-(2-{2-Chloro-5-[5-(methylsulfonyl)-1-(3-morpholin-4-ylpropyl)-4,5,6,7-tetrahydro-1H-pyrazolo[4,3-c]pyridin-3-yl]phenyl}ethyl)phenyl]-N-(tetrahydro-2H-pyran-4-ylmethyl)methanamine] | 0.69 |
| Cc1cc(CNCc2ccc(C#Cc3cc(-c4nn(CCCN5CCOCC5)c5c4CN(S(C)(=O)=O)CC5)ccc3Cl)cc2)c(C(F)(F)F)o1 [Example 426, 1-[4-({2-Chloro-5-[5-(methylsulfonyl)-1-(3-morpholin-4-ylpropyl)-4,5,6,7-tetrahydro-1H-pyrazolo[4,3-c]pyridin-3-yl]phenyl}ethynyl)phenyl]-N-{[5-methyl-2-(trifluoromethyl)furan-3-yl]methyl}methanamine] | 0.39 |
| NC(=O)N1CCc2c(c(-c3ccc(Cl)c(C#Cc4ccc(CN[C@@H]5CCCc6ccccc65)cc4)c3)nn2CCCN2CCOCC2)C1 [Example 477, 3-{4-Chloro-3-[(4-{[(1R)-1,2,3,4-tetrahydronaphthalen-1-ylamino]methyl}phenyl)ethynyl]phenyl}-1-(3-morpholin-4-ylpropyl)-1,4,6,7-tetrahydro-5H-pyrazolo[4,3-c]pyridine-5-carboxamide] | 0.1 |
| C[C@H]1COCCN1CCCn1nc(-c2ccc(Cl)c(C#Cc3ccc(C(=O)NCCN4CCOCC4)cc3)c2)c2c1CCN(C(=O)C(N)=O)C2 [Example 169, 4-{[5-(5-[Amino(oxo)acetyl]-1-{3-[(3S)-3-methylmorpholin-4-yl]propyl}-4,5,6,7-tetrahydro-1H-pyrazolo[4,3-c]pyridin-3-yl)-2-chlorophenyl]ethynyl}-N-(2-morpholin-4-ylethyl)benzamide] | 0.05 |
| CS(=O)(=O)N1CCc2c(c(-c3ccc(Cl)c(C#Cc4cccc(CNCc5ccncc5)c4)c3)nn2CCCN2CCOCC2)C1 [Example 522, 1-[3-({2-Chloro-5-[5-(methylsulfonyl)-1-(3-morpholin-4-ylpropyl)-4,5,6,7-tetrahydro-1H-pyrazolo[4,3-c]pyridin-3-yl]phenyl}ethynyl)phenyl]-N-(pyridin-4-ylmethyl)methanamine] | 0.33 |
| C[C@H]1COCCN1CCCn1nc(-c2ccc(Cl)c(C#Cc3ccc(Cl)c(CN(C)C)c3)c2)c2c1CCN(C(=O)C(N)=O)C2 [Example 616, 2-(3-[4-Chloro-3-({4-chloro-3-[(dimethylamino)methyl]phenyl}ethynyl)phenyl]-1-{3-[(3S)-3-methylmorpholin-4-yl]propyl}-1,4,6,7-tetrahydro-5H-pyrazolo[4,3-c]pyridin-5-yl)-2-oxoacetamide] | 0.012 |
| C[C@H]1COCCN1CCCn1nc(-c2ccc(Cl)c(C#Cc3ccc(CNCc4ccc(Cl)cc4)cc3)c2)c2c1CCN(C(N)=O)C2 [Example 401, 3-(4-Chloro-3-{[4-({[(4-chlorophenyl)methyl]amino}methyl)phenyl]ethynyl}phenyl)-1-{3-[(3S)-3-methylmorpholin-4-yl]propyl}-1,4,6,7-tetrahydro-5H-pyrazolo[4,3-c]pyridine-5-carboxamide] | 0.11 |
| NC(=O)N1CCc2c(c(-c3ccc(Cl)c(C#Cc4ccc(CNCc5ccc(Cl)cc5)cc4)c3)nn2C[C@H](O)CN2CCSCC2)C1 [Example 252, (R)-3-(4-Chloro-3-{4-[(4-chloro-benzylamino)-methyl]-phenylethynyl}-phenyl)-1-(2-hydroxy-3-thiomorpholin-4-yl-propyl)-1,4,6,7-tetrahydro-pyrazolo[4,3-c]pyridine-5-carboxylic acid amide] | 0.11 |
| NC(=O)N1CCc2c(c(-c3ccc(Cl)c(C#Cc4ccc(Cl)c(C(=O)N5CCCNCC5)c4)c3)nn2CCCN2CCSCC2)C1 [Example 572, 3-(4-Chloro-3-{[4-chloro-3-(1,4-diazepan-1-ylcarbonyl)phenyl]ethynyl}phenyl)-1-(3-thiomorpholin-4-ylpropyl)-1,4,6,7-tetrahydro-5H-pyrazolo[4,3-c]pyridine-5-carboxamide] | 0.17 |
| CS(=O)(=O)N1CCc2c(c(-c3ccc(Cl)c(C#Cc4c[nH]cn4)c3)nn2CCCN2CCOCC2)C1 [Example 441, 3-[4-Chloro-3-(1H-imidazol-4-ylethynyl)phenyl]-5-(methylsulfonyl)-1-(3-morpholin-4-ylpropyl)-4,5,6,7-tetrahydro-1H-pyrazolo[4,3-c]pyridine] | 3.06 |
| CS(=O)(=O)N1CCc2c(c(-c3ccc(Cl)c(C#Cc4ccc(CNCc5ccc(Cl)cc5)cc4)c3)nn2CCCN2CCNCC2)C1 [Example 368, 1-[4-({2-Chloro-5-[5-(methylsulfonyl)-1-(3-piperazin-1-ylpropyl)-4,5,6,7-tetrahydro-1H-pyrazolo[4,3-c]pyridin-3-yl]phenyl}ethynyl)phenyl]-N-[(4-chlorophenyl)methyl]methanamine] | 0.33 |

same assay, conditions: CatS IC50, Table 2; average of results obtained

| Structure (SMILES) | IC50 [µM] |
| --- | --- |
| O=C(c1ccco1)N1CCc2c(c(-c3ccc(Cl)c(C#Cc4ccc(Cl)cc4)c3)nn2CCCN2CCOCC2)C1 [Example 138, [3-[4-Chloro-3-(4-chloro-phenylethynyl)-phenyl]-1-(3-morpholin-4-yl-propyl)-1,4,6,7-tetrahydro-pyrazolo[4,3-c]pyridin-5-yl]-furan-2-yl-methanone] | 0.35 |
